Experimental data reported in paper PMC4303209, “A novel phosphatidylinositol 3-kinase (PI3K) inhibitor directs a potent FOXO-dependent, p53-independent cell cycle arrest phenotype characterized by the differential induction of a subset of FOXO-regulated genes” (Breast Cancer Research : BCR, 2014).

System: MCF-7 breast cancer cells
Experiment: Microarray gene expression analysis (Agilent whole human genome 4 x 44K; compound vs DMSO, LIMMA log2 fold change)
Format: cell-based
Conditions: Apoptosis genes

Compound: Oc1cccc(-c2nc(N3CCOCC3)c3oc4ncccc4c3n2)c1 [PI-103]
- KALRN log2FC (Gene 8997): 0.194
- SOCS3 log2FC (Gene 9021): -0.840
- BRSK2 log2FC (Gene 9024): -0.160
- UBE2M log2FC (Gene 9040): -0.417
- SART1 log2FC (Gene 9092): -0.00235
- DNAJA3 log2FC (Gene 9093): 0.121
- RABEP1 log2FC (Gene 9135): 0.492
- ARHGEF2 log2FC (Gene 9181): -0.509
- DEDD log2FC (Gene 9191): -0.033
- AURKB log2FC (Gene 9212): -0.231
- FAIM3 log2FC (Gene 9214): -0.530
- DLG5 log2FC (Gene 9231): -0.212
- PNMA1 log2FC (Gene 9240): 0.459
- NOG log2FC (Gene 9241): -0.308
- CRLF1 log2FC (Gene 9244): 0.144
- STK17B log2FC (Gene 9262): 0.429
- STK17A log2FC (Gene 9263): 0.011
- BCL7C log2FC (Gene 9274): -0.197
- TAOK2 log2FC (Gene 9344): -0.249
- SLIT2 log2FC (Gene 9353): 0.341
- SLC9A3R1 log2FC (Gene 9368): -0.528
- TJP2 log2FC (Gene 9414): 0.196
- NTN1 log2FC (Gene 9423): -0.198
- ITM2B log2FC (Gene 9445): 0.317
- AIM2 log2FC (Gene 9447): -0.062
- LY86 log2FC (Gene 9450): -0.203
- EIF2AK3 log2FC (Gene 9451): 0.495
- HAND2 log2FC (Gene 9464): -0.691
- ATG5 log2FC (Gene 9474): -0.728
- ROCK2 log2FC (Gene 9475): 0.195
- MAPK8IP1 log2FC (Gene 9479): 0.085
- SLC25A27 log2FC (Gene 9481): -0.081
- PSMF1 log2FC (Gene 9491): -0.344
- LITAF log2FC (Gene 9516): -0.833
- EEF1E1 log2FC (Gene 9521): 0.110
- BAG4 log2FC (Gene 9530): 0.152
- BAG3 log2FC (Gene 9531): -0.812
- EI24 log2FC (Gene 9538): -0.583
- BCAR1 log2FC (Gene 9564): -0.480
- BRE log2FC (Gene 9577): -0.205
- RNF7 log2FC (Gene 9616): -0.244
- TRAF4 log2FC (Gene 9618): -0.924
- AATK log2FC (Gene 9625): 1.492
- IKBKE log2FC (Gene 9641): -0.667
- PPM1F log2FC (Gene 9647): -0.302
- RAPGEF2 log2FC (Gene 9693): 0.948
- ESPL1 log2FC (Gene 9700): 0.721
- HERPUD1 log2FC (Gene 9709): 0.170
- SLK log2FC (Gene 9748): 0.857
- BCLAF1 log2FC (Gene 9774): 0.632
- KIAA0141 log2FC (Gene 9812): 0.468
- RB1CC1 log2FC (Gene 9821): 1.484
- ARHGEF11 log2FC (Gene 9826): -0.060
- ARHGEF17 log2FC (Gene 9828): 0.506
- MELK log2FC (Gene 9833): 0.254
- PSMD6 log2FC (Gene 9861): 0.158
- ARNT2 log2FC (Gene 9915): 0.025
- THOC1 log2FC (Gene 9984): 0.375
- CASP8AP2 log2FC (Gene 9994): 0.614
- SRA1 log2FC (Gene 10011): -0.916
- PDCD6IP log2FC (Gene 10015): 0.603
- PDCD6 log2FC (Gene 10016): -0.491
- BCL2L11 log2FC (Gene 10018): 0.088
- PARP2 log2FC (Gene 10038): 0.326
- DNAJB6 log2FC (Gene 10049): 0.183
- DNM1L log2FC (Gene 10059): 0.444
- PDCD7 log2FC (Gene 10081): 0.098
- PPIF log2FC (Gene 10105): -1.136
- FEM1B log2FC (Gene 10116): -0.374
- BCAP31 log2FC (Gene 10134): -0.357
- RBM5 log2FC (Gene 10181): 0.638
- RNF41 log2FC (Gene 10193): 0.278
- PSME3 log2FC (Gene 10197): -1.222
- DHRS2 log2FC (Gene 10202): 0.281
- TOPORS log2FC (Gene 10210): 0.598
- PSMD14 log2FC (Gene 10213): 0.153
- SPRY2 log2FC (Gene 10253): -0.930
- NET1 log2FC (Gene 10276): 0.503
- UBE4B log2FC (Gene 10277): -0.565
- SAP18 log2FC (Gene 10284): 0.198
- TRAIP log2FC (Gene 10293): 0.566
- MAEA log2FC (Gene 10296): -0.106
- PAK4 log2FC (Gene 10298): -0.420
- RTN3 log2FC (Gene 10313): -0.192
- CITED2 log2FC (Gene 10370): 2.312
- SEMA3A log2FC (Gene 10371): 0.050
- DLC1 log2FC (Gene 10395): -1.010
- GNB2L1 log2FC (Gene 10399): -0.033
- YAP1 log2FC (Gene 10413): 0.172
- CFDP1 log2FC (Gene 10428): 0.411
- C1D log2FC (Gene 10438): 0.246
- ACAA2 log2FC (Gene 10449): 0.115
- VAV3 log2FC (Gene 10451): 2.272
- STK25 log2FC (Gene 10494): 0.213
- SEMA4D log2FC (Gene 10507): 0.274
- MYBBP1A log2FC (Gene 10514): -0.303
- CIB1 log2FC (Gene 10519): -0.082
- ATG7 log2FC (Gene 10533): -0.414
- HTATIP2 log2FC (Gene 10553): 0.204
- ERN2 log2FC (Gene 10595): -0.680
- RBCK1 log2FC (Gene 10616): -0.315
- STAMBP log2FC (Gene 10617): 0.275
- IVNS1ABP log2FC (Gene 10625): 0.167
- TXNIP log2FC (Gene 10628): 2.206
- RRAGA log2FC (Gene 10670): -0.315
- PNMA2 log2FC (Gene 10687): -0.058
- CHL1 log2FC (Gene 10752): 0.036
- NES log2FC (Gene 10763): -0.277
- PLK2 log2FC (Gene 10769): -0.927
- ZMYND11 log2FC (Gene 10771): 0.395
- NEK6 log2FC (Gene 10783): -0.675
- NCKAP1 log2FC (Gene 10787): 0.619
- ZNF268 log2FC (Gene 10795): 0.176
- PPP1R13L log2FC (Gene 10848): 0.642
- LILRB1 log2FC (Gene 10859): -0.213
- MRPS30 log2FC (Gene 10884): 0.033
- PROKR1 log2FC (Gene 10887): -0.254
- PPARGC1A log2FC (Gene 10891): 0.154
- MALT1 log2FC (Gene 10892): -0.458
- JTB log2FC (Gene 10899): -0.072
- BLCAP log2FC (Gene 10904): -0.472
- EDAR log2FC (Gene 10913): -0.571
- RNPS1 log2FC (Gene 10921): -0.284
- FASTK log2FC (Gene 10922): -0.187
- PRDX3 log2FC (Gene 10935): 0.328
- MLLT11 log2FC (Gene 10962): -0.868
- YWHAQ log2FC (Gene 10971): 0.144
- IL24 log2FC (Gene 11009): -0.212
- RIPK3 log2FC (Gene 11035): -0.030
- PIM2 log2FC (Gene 11040): -0.544
- DIDO1 log2FC (Gene 11083): -0.398
- FAF1 log2FC (Gene 11124): 0.215
- CAPN10 log2FC (Gene 11132): -0.148
- NISCH log2FC (Gene 11188): 0.538
- CHEK2 log2FC (Gene 11200): 0.111
- AKAP13 log2FC (Gene 11214): -0.354
- DDX20 log2FC (Gene 11218): 0.280
- PDCD10 log2FC (Gene 11235): 0.466
- GABARAP log2FC (Gene 11337): 0.401
- ATF5 log2FC (Gene 22809): -1.254
- PHLDA1 log2FC (Gene 22822): -2.154
- CARD8 log2FC (Gene 22900): 0.156
- SNW1 log2FC (Gene 22938): 0.538
- TRIM32 log2FC (Gene 22954): -0.315
- ACIN1 log2FC (Gene 22985): -0.228
- TRIM35 log2FC (Gene 23087): 0.205
- KIF1B log2FC (Gene 23095): 0.163
- PSME4 log2FC (Gene 23198): -0.072
- ARHGEF9 log2FC (Gene 23229): 0.137
- PACS2 log2FC (Gene 23241): -0.041
- MCF2L log2FC (Gene 23263): 0.306
- TRIM2 log2FC (Gene 23321): 0.862
- ARHGEF12 log2FC (Gene 23365): 0.170
- PPP1R13B log2FC (Gene 23368): 0.064
- NCSTN log2FC (Gene 23385): 0.292
- ADNP log2FC (Gene 23394): 0.175
- SIRT1 log2FC (Gene 23411): 1.169
